The values that follow come from patent US12577229B2, “Substituted {5-methoxy-6-[(5-methoxypyridin-2-yl)methoxy]pyridin-3-yl} methyl compounds as CSF-1R inhibitors” (Eli Lilly and Company, priority 2020, dated 2026).

Each structure is given as a SMILES string. Bounds are passed on as bounds.

As usually defined, the IC50 is the concentration that inhibits the measured activity by half. The term inhibition denotes the relative decrease from the control value, in per cent.

One test has as its target T1, human PDGFRβ (Homo sapiens, UniProt P09619).
T1 construct: enzyme fragment for Enzyme Fragment Complementation (β-galactosidase fragment); host or cells: U2OS
Briefly: DiscoverX PathHunter RTK cell based functional assay, PDGFRβ. The settings on record: PDGFRβ U2OS cells, 3 nM PDGF-BB agonist, n=4.

The next test deals with KIT (Homo sapiens, UniProt P10721). Briefly: biochemical. The method, then: (§1) DiscoverX® KINOMEscan™ In Vitro Kinase Competition Binding Assay
(§2) Compound activity (% binding) is monitored by measuring the amount of kinase captured in test versus control samples by using a qPCR method that detects the associated DNA label. The binding activity is converted to % inhibition and an IC50 value is determined for CSF-1R fold-selectivity assessment.
(§3) Assays to monitor binding to a 468-kinase panel are conducted at DiscoverX® Corporation (Fremont, CA). Test compound is provided as a 10 mM stock in 100% DMSO and evaluated at […] final concentrations. Kinases are tagged with DNA for qPCR detection. […] The liganded beads are blocked with excess biotin and washed with blocking buffer (Pierce SeaBlock, 1% BSA, 0.05% Tween 20 and 1 mM DTT) to remove unbound ligand and to reduce nonspecific binding. […] Test compound is prepared as a 40×stock in 100% DMSO and directly diluted into the assay. All reactions are performed in polypropylene 384-well plates in a final volume of 0.02 mL. […] The kinase concentration in the eluates is measured by qPCR. […]
(§4) The percent inhibition values, and the 3-point concentration response data are subsequently determined and analyzed with NGR software, and non-standard IC50 values are calculated from the resulting curve fit. […]

The target of another test is T2, KIT V559D (Homo sapiens, UniProt P10721, V559D).
T2 construct: purchased DiscoverX Corporation (Fremont, CA), contract assay
Briefly: DiscoverX KINOMEscan kinase competition binding assay, KIT V559D. The settings on record: 2 μM compound concentration. The method, then: as §1, §2, §3, §4

For another test, the target named is T3, KIT L576P (Homo sapiens, UniProt P10721, L576P).
T3 construct: purchased DiscoverX Corporation (Fremont, CA), contract assay
The test can be described thus: DiscoverX KINOMEscan kinase competition binding assay, KIT L576P. The settings on record: 2 μM compound concentration. As to the method:
as §1, §2, §3, §4

In the next test the target is T4, KIT V559D V654A (Homo sapiens, UniProt P10721, V559D/V654A).
T4 construct: purchased DiscoverX Corporation (Fremont, CA), contract assay
The test can be described thus: DiscoverX KINOMEscan kinase competition binding assay, KIT V559D V654A. The conditions noted are these: 2 μM compound concentration. As to the method:
as §1, §2, §3, §4

The next test deals with T5, PDGFRB (Homo sapiens, UniProt P09619).
T5 construct: purchased DiscoverX Corporation (Fremont, CA), contract assay
The test can be described thus: DiscoverX KINOMEscan kinase competition binding assay, PDGFRB. The method, then: as §1, §2, §3, §4

Another test deals with 468-kinase panel. Briefly: DiscoverX KINOMEscan kinase competition binding assay, whole panel. Details: species or system human. The settings on record: of 468 protein kinases, 2 μM compound concentration. As to the method:
as §1, §2
Assays to monitor binding to a 468-kinase panel are conducted at DiscoverX® Corporation (Fremont, CA). […] Kinases are tagged with DNA for qPCR detection. […] The liganded beads are blocked with excess biotin and washed with blocking buffer (Pierce SeaBlock, 1% BSA, 0.05% Tween 20 and 1 mM DTT) to remove unbound ligand and to reduce nonspecific binding. […] Test compound is prepared as a 40×stock in 100% DMSO and directly diluted into the assay. All reactions are performed in polypropylene 384-well plates in a final volume of 0.02 mL. […] The kinase concentration in the eluates is measured by qPCR. The results for primary screen binding interactions are reported as ‘% Ctrl’, where lower numbers indicate stronger hits in the matrix.
Percent of control (% Ctrl) calculation: […]
as §4

For test [1], the system named is P301S mouse tauopathy model. The settings on record: cited from earlier work.
For test [2], the system named is 5xFAD model of Alzheimer's disease. The conditions noted are these: cited from earlier work.

T4 sequence (P10721 26-976 V559D/V654A): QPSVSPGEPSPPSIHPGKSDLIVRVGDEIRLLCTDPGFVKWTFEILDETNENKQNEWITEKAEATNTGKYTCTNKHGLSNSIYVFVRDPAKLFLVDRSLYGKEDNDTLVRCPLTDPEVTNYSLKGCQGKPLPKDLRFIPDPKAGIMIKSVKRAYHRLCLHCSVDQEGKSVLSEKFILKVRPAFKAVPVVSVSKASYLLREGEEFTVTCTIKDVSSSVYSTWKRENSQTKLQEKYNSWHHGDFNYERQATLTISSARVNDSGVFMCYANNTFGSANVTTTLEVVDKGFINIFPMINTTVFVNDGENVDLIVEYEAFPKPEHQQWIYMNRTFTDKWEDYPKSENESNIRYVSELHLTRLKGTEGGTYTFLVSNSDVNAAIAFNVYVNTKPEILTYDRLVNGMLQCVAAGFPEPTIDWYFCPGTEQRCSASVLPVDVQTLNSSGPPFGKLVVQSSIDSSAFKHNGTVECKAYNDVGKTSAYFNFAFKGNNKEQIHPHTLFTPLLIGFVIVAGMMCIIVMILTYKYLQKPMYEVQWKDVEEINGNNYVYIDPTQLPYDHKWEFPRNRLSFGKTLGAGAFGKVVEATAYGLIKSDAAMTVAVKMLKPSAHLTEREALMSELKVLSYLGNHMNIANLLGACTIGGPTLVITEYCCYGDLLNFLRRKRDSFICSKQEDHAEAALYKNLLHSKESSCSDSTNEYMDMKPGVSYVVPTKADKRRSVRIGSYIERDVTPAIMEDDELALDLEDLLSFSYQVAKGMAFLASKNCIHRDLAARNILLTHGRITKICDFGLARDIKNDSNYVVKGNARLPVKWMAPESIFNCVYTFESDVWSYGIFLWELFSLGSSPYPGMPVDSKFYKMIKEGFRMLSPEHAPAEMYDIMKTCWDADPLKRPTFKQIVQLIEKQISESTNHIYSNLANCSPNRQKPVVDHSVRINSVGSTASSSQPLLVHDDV
T3 sequence (P10721 26-976 L576P): as the sequence (P10721 26-976 V559D/V654A) above, with D534V, L551P, A629V counted along it
T2 sequence (P10721 26-976 V559D): as the sequence (P10721 26-976 V559D/V654A) above, with A629V counted along it
T1 sequence (P09619 33-1106): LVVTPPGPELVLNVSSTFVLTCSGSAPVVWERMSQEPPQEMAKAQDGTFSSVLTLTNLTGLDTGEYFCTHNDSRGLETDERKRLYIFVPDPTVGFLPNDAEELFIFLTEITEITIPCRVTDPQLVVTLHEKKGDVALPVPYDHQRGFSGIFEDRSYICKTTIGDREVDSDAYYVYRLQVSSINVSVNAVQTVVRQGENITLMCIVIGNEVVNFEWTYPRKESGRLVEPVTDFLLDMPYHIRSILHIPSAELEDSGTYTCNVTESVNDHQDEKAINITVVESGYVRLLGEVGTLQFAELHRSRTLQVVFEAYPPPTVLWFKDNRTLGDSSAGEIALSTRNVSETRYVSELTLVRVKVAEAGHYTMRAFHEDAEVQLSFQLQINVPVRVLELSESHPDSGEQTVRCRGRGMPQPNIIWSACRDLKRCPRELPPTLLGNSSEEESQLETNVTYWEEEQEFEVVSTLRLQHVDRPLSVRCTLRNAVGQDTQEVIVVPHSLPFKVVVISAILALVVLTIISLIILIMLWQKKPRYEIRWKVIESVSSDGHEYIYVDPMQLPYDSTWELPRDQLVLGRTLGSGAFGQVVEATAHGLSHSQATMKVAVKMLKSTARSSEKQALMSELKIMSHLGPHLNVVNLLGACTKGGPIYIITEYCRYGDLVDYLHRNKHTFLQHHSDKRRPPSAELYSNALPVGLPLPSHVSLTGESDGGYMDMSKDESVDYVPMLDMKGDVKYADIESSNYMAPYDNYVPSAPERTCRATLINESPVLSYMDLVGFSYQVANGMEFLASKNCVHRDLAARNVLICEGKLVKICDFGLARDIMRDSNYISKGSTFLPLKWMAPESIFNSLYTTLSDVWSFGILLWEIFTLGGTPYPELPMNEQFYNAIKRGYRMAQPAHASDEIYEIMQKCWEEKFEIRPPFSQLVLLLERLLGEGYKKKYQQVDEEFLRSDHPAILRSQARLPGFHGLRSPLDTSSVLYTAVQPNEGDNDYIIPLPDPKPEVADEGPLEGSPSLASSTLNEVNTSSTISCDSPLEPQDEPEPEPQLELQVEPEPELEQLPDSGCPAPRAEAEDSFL
T5 sequence (P09619 33-1106): as above
Chain of KIT (P10721 26-976): as the sequence (P10721 26-976 V559D/V654A) above, with D534V, A629V counted along it
Method for human PDGFRβ: DiscoverX® PathHunter Receptor Tyrosine Kinase (RTK) Cell Based Functional Assay
For in vitro PDGFRβ (Accession NM_002609, Part No. 93-0493C3) and c-Kit (Accession NM_000222, Part No. 93-0853C3) cellular assays, the test compounds are prepared in DMSO to make up a 10 mM stock solution. The stock solution is serially diluted two-fold in DMSO to obtain a twenty-point curve with final compound concentrations ranging from 20.0 μM to 0.019 nM.
DiscoverX® PathHunter Receptor Tyrosine Kinase (RTK) cell based functional assays are utilized to profile compounds using Enzyme Fragment Complementation technology with human PDGFRβ U2OS cells and human c-Kit U2OS cells. Cells are continuously cultured from cell passage 5 up to cell passage 30 in AssayComplete™ Cell Culture Kit-103 (DiscoverX®, 92-3103G) media containing 500 μg/mL G418 and 250 μg/mL hygromycin. PDGFRβ or c-Kit cells (27 μL) in media (DiscoverX®, 93-0563R16B) are seeded at 1.5×10^4 cells/well into all wells of a Corning 384 poly-d-lysine coated white plate. The cell plates are then incubated overnight at 37° C., 5.0% CO2. Compound serial dilutions are then added to rows A-P, columns 3-22. DMSO and inhibitor controls are added to rows A-P, columns 1-2 and 23-24, respectively. Cell plates with compound or controls are incubated for 1 hour at 37° C., 5.0% CO2. […] After 1 hour, cell plates are read on a chemiluminescence capable plate reader. […]

For `COc1ccc(COc2ncc(Cc3ccnc(-c4cnn(C)c4)n3)cc2OC)nc1` [Example 1, 4-({5-Methoxy-6-[(5-methoxypyridin-2-yl)methoxy]pyridin-3-yl}methyl)-2-(1-methyl-1H-pyrazol-4-yl)pyrimidine], the concentration for half-maximal inhibition (IC50) on human PDGFRβ was more than 20 µM. Also, the inhibition at 2 µM at KIT turned out to be 99.4%; at KIT V559D, 99.5%; on KIT L576P, 96.4%; at KIT V559D V654A, 84%; on PDGFRB it was 90.8%. In addition, the “number of kinases showing less than 35% control activity (or >65% inhibition)” value in the test with 468-kinase panel came to 3 kinases.
For the compound `CC1(C)CC=C(c2nc(C3CC(C)(C)OC(C)(C)C3)ccc2NC(=O)c2nc(C#N)c[nH]2)CC1` [JNJ-40346527], the “effect on tau phosphorylation and aggregation” value in [1] was “inhibit tau phosphorylation and aggregation”.
Take `FC(F)(F)c1ccc(CNc2ccc(Cc3c[nH]c4ncc(Cl)cc34)cn2)cn1` [PLX3397]: in test [2], the “effect on amyloid pathology” value is “Reductions in intraneuronal amyloid, neuritic plaque formation and pre-fibrillar and fibrillar oligomers”; the “effect on cognitive function” value is reported as “improvements in cognitive function”.
